{"source": "patent US20090023643A1", "about": "“Methods For Treating Acute Myocardial Infarction By Administering Calcitonin Gene Related Peptide And Compositions Containing The Same” (VasoGenix Pharmaceuticals, Inc., priority 2004, published 2009)", "origin": "cited, not measured here", "key": {"B7-2": {"test_system": "B7-2", "conditions": "Ashana et al 1995; Torii et al 1997"}, "IL-16": {"test_system": "IL-16", "conditions": "Dunzendorfer et al 2002-2003"}, "[1]": {"test_system": "IGF-1 (insulin-like growth factor-1)", "conditions": "R. Zfoncea et al 1997"}, "IL-12": {"test_system": "IL-12", "conditions": "Torii et al 1997"}, "IL-10": {"test_system": "IL-10", "conditions": "Torii et al 1997"}, "IL-1β": {"test_system": "IL-1β", "conditions": "Torii et al 1997"}, "TNF-α": {"test_system": "TNF-α", "conditions": "lipopolysaccharide induced, macrophages; Feng et al 1997"}, "IL-7": {"test_system": "IL-7", "conditions": "Fernandez et al 2000"}}, "data": [{"substance": "CGRP", "values": [{"measurement": "CGRP activity: cytokines inhibited or suppressed, B7-2; benefits", "setting": "B7-2", "value": "Inhibits Granulocyte-Macrophage Colony"}, {"measurement": "CGRP activity: cytokines inhibited or suppressed, IL-16; benefits", "setting": "IL-16", "value": "Inhibits macrophage chemotaxis"}, {"measurement": "expression of IGF-1", "setting": "[1]", "value": "increases expression of IGF-1"}, {"measurement": "CGRP activity: cytokines inhibited or suppressed, IL-12; benefits", "setting": "IL-12", "value": "Suppresses Natural Killer Cell Stimulating factor (NKSF)"}, {"measurement": "CGRP activity: induced anti-inflammatory cytokines, IL-10; benefits", "setting": "IL-10", "value": "Inhibits monocyte inflammation"}, {"measurement": "CGRP activity: cytokines inhibited or suppressed, IL-1β; benefits", "setting": "IL-1β", "value": "Inhibits proliferation of T-cells"}, {"measurement": "CGRP activity: cytokines inhibited or suppressed, TNF-α; benefits", "setting": "TNF-α", "value": "Inhibits lipopolysaccharide induced TNF-α in macrophages"}, {"measurement": "CGRP activity: cytokines inhibited or suppressed, IL-7; benefits", "setting": "IL-7", "value": "Inhibits pre B-cell development and T-cell development"}]}]}
